The values below come from ChEMBL document CHEMBL1201862, “PubChem BioAssay data set” (2004).

The source made the active and inactive calls.

Experiment [1] is described as follows: viability loss in THP-1 monocytes – THP-1 cells, cytotoxicity control for Vif-APOBEC3G degradation inhibitor project, dose response (AID 1117359). The note with it: THP-1. It counts as functional.
For the next experiment, the target named is T1, Protein Tat (Human immunodeficiency virus type 1 group M subtype B (isolate HXB2)(HIV-1), UniProt P04608).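 Also: tat binding to TAR RNA read out by fluorescence polarization.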
T1 sequence (P04608 whole entry): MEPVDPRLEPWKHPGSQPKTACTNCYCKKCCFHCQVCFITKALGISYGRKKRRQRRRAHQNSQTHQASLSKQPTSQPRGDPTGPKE
It counts as functional.

The target of experiment [2] is Aryl hydrocarbon receptor (Homo sapiens, UniProt P35869). Kind of experiment: Luminescence-based cell-based high throughput dose response assay for activators of the Aryl Hydrocarbon Receptor (AHR). [Related pubchem assays: 2796 (Primary screen (AHR activators in singlicate)), 2845 (Confirmation screen (AHR activators in triplicate)), 434939 (Counterscreen (PXR activators in triplicate)), 2804 (Summary (AHR activators))]. It counts as ADME.

The next experiment relates to H4. Kind of experiment: Luminescence Cell-Based Dose Response HTS to Identify Activators of 5'UTR Stem-Loop Driven Prion Protein mRNA Translation in H4 Neuroglioblastoma Cells. [Related pubchem assays: 1829 (Project Summary), 1814 (Primary HTS)]. It is filed as functional. Conditions: Homo sapiens.
Experiment [3] is described as follows: Luminescence Cell-Based Dose Response HTS to Identify Activators of Luciferase Translation or Activity in H4 […] Cells. [Related pubchem assays: 1829 (Project Summary), 1814 (Primary HTS)]. It counts as functional.
The target of experiment [4] is T2, Bcl-2-related protein A1 (Mus musculus, UniProt Q07440).
T2 sequence (Q07440 whole entry): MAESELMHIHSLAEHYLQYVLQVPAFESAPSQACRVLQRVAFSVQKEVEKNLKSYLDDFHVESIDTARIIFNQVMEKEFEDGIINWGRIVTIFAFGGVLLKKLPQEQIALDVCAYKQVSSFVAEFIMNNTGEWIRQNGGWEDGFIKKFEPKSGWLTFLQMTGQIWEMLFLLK
Nature of the experiment: small-molecule antagonists of Bfl-1/BH3 interaction – biochemical, TR-FRET, mouse Bfl-1, confirmation (AID 621).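 Also: TR-FRET binding of GST-Bfl-1 to FITC-labelled Bid peptide via terbium antibody.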 On the technique in general: In TR-FRET formats the signal depends on donor and acceptor labels being close together.

Experiment [5] concerns the target T2, Bcl-2-related protein A1. Nature of the experiment: Bfl-1 binding inhibitors, SAR follow-up, biochemical, fluorescence polarization (AID 1070). In general terms: Polarisation of emitted light reports the rotation of a fluorescent probe.
Experiment [6] has as its target NAD-dependent protein deacylase sirtuin-5, mitochondrial (Homo sapiens, UniProt Q9NXA8). Nature of the experiment: sirtuin-5 deacylation blockers, concentration series – biochemical, fluorescence imaging, cherry-pick, set 5, dose response (AID 720591).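 Also: desuccinylation of succinyl peptide AMC substrate read as fluorescence after trypsin release; potency of inhibitors that lower fluorescence and may act on trypsin instead.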
The target of experiment [7] is T3, Short transient receptor potential channel 4 (Mus musculus, UniProt Q9QUQ5).
T3 sequence (Q9QUQ5 whole entry): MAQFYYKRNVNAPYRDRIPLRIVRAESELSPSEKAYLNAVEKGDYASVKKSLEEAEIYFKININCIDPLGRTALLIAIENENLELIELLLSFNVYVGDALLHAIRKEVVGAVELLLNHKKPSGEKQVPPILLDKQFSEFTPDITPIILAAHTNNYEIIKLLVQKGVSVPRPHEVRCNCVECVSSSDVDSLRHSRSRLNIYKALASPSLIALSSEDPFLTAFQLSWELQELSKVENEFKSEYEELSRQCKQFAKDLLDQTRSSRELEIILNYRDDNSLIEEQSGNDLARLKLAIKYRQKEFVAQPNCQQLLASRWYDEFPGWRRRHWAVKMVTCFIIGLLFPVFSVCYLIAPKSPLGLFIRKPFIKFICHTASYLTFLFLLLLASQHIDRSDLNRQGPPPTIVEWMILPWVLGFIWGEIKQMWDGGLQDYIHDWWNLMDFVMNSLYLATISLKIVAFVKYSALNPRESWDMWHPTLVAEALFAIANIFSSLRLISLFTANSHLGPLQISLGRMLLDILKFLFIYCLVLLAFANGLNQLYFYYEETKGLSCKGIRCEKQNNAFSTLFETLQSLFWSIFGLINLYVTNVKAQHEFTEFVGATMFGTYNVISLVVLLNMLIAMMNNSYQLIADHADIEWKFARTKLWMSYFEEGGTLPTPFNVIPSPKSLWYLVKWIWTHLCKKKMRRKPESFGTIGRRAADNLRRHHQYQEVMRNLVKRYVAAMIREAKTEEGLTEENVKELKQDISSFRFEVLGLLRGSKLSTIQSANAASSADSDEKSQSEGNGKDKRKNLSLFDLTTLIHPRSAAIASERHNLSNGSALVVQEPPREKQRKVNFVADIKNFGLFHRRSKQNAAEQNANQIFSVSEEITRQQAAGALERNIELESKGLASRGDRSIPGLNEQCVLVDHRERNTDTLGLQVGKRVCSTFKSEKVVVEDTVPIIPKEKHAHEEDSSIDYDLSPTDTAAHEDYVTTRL
Nature of the experiment: block of DAMGO-driven TRPC4 calcium entry – cell-based, HEK293 TRPC4/mu-opioid, Fluo-4 calcium, dose response (AID 434942).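 Also: potency of inhibitors blocking the TRPC4 calcium response.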 It is filed as functional.

For experiment [8], the target named is T4, DNA repair and recombination protein RAD54-like (Homo sapiens, UniProt Q92698).
T4 sequence (Q92698 whole entry): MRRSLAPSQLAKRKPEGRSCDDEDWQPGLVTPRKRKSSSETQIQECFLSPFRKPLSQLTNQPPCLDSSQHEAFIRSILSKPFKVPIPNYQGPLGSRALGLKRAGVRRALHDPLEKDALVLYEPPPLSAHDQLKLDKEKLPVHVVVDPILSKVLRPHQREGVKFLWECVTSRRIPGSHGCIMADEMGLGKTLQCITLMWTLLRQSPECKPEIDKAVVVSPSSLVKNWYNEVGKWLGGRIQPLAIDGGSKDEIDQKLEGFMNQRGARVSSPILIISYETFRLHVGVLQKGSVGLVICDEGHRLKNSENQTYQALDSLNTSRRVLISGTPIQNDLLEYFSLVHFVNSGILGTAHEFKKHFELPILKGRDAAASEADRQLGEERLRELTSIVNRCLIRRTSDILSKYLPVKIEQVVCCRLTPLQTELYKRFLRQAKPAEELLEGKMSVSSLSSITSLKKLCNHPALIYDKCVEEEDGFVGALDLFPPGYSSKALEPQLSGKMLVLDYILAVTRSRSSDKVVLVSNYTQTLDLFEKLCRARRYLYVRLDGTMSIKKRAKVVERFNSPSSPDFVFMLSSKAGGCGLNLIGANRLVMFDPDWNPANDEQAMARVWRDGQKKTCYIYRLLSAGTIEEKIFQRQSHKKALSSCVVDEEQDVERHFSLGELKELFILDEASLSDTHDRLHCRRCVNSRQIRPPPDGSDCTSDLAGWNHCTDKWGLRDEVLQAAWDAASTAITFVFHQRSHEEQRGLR
Nature of the experiment: RAD54 Holliday junction migration blockers – biochemical, fluorescence, cherry-picked samples, dose series, confirmation (AID 651657). It counts as functional.

The target in experiment [9] is Sphingosine 1-phosphate receptor 2 (Homo sapiens, UniProt O95136). Kind of experiment: Dose Response Cell Based Assay for Antagonists of the S1P2 Receptor. [Related pubchem assays: 856, 736 ]. It counts as functional.
Experiment [10] in a line: M. tuberculosis H37Rv growth inhibitors, H37Rv strain (AID 1626). It counts as functional.
Experiment [11] in a line: microbe, parasite or virus in culture. It is filed as functional. Conditions: Mycobacterium tuberculosis.
A short description of a further experiment: cells. It is filed as functional.
For a further experiment, the target named is Cytochrome P450 3A4 (Homo sapiens, UniProt P08684). Conditions: Potency.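 Also: confirmatory qHTS run detecting inhibitors and substrates of CYP3A4.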
The next experiment addresses Cytochrome P450 2C19 (Homo sapiens, UniProt P33261). Kind of experiment: qHTS Assay for Inhibitors and Substrates of Cytochrome P450 2C19. [Related pubchem assays: 410 ]. It counts as ADME. Conditions: read-out: Potency.
Experiment [12] has as its target Photoreceptor-specific nuclear receptor (Homo sapiens, UniProt Q9Y5X4). Kind of experiment: ligands suppressing NR2E3 nuclear receptor activity – biochemical, TR-FRET, dose response (AID 463256). It counts as functional.
Experiment [13] has as its target Peroxisome proliferator-activated receptor gamma/Nuclear receptor corepressor 2 (Homo sapiens, UniProt P37231+Q9Y618). Kind of experiment: Counterscreen for NR2E3 inverse agonists: TR-FRET-based biochemical high throughput dose response assay to identify inverse agonists of the interaction between peroxisome proliferator-activated receptor gamma (PPARg) and nuclear receptor co-repressor 2 (NCOR2). It counts as functional. (A counterscreen serves to expose hits that act by an unwanted route or on another target.)

Experiment [14] can be described thus: IC50 of insulin release inhibition, rat insulinoma INS-1E line, 5 mM glucose, cell-based (AID 1117331). It counts as functional.
Experiment [15] can be described thus: rise of 4N DNA cells, HeLa – IC50, dose response (AID 1117351). It counts as functional, cell-based.
Experiment [16] is described as follows: rise of 2N DNA cells, HeLa – IC50, dose response (AID 1117349). It is filed as functional, cell-based.
For the next experiment, the target named is Paired box protein Pax-8 (Homo sapiens, UniProt Q06710). Kind of experiment: PAX8 transcriptional activity inhibition in RMG-I – RMG-I cells, luciferase, cherry-pick, dose response (AID 687027).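 Also: luciferase reporter driven by Pax8 target thyroperoxidase promoter measured by SteadyGlo luminescence.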 It counts as functional, cell-based.
Experiment [17] can be described thus: OVCAR-3 cell viability loss – plate reader, dry powder samples, PAX8 inhibitor project, dose response (AID 743044). It is filed as functional, cell-based.
Experiment [18] is described as follows: Dd2 malaria parasite growth inhibition potency – SYBR Green, dry powder samples, dose response (AID 1159566).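 Also: potency for growth inhibition with lower SYBR green DNA signal.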 It is filed as functional, cell-based.
Experiment [19] in a line: growth inhibition of PfATP4-mutant resistant parasites – NITD609-resistant line, SYBR Green, dry powder, dose response (AID 1159571).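 Also: parasites synchronized at ring stage by sorbitol before testing.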 It is filed as functional, cell-based.
Experiment [20] in a line: toxicity to human HepG2 hepatoma cells – cell-based, plate reader, dry powder samples, cytotoxicity control, dose response (AID 1159569).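 Also: inhibitor potency with signal falling toward the positive control level.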 It counts as functional.
The nature of experiment [21]: P. falciparum Dd2 growth inhibitors, dose response, SYBR Green, cherry-picked samples (AID 1159567). It counts as functional, cell-based.
A short description of experiment [22]: toxicity to human hepatoma HepG2 cells – cell-based, cherry-picked samples, cytotoxicity control, dose response (AID 1159577). It is filed as functional.
The nature of experiment [23]: growth inhibition of yeast DHODH-expressing 3D7 parasites – SYBR Green, dry powder samples, dose response (AID 1159570).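 Also: parasite growth measured after 72 hours of compound exposure.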 It is filed as functional, cell-based.

Cytochrome P450 2C19, sequence (P33261 whole entry): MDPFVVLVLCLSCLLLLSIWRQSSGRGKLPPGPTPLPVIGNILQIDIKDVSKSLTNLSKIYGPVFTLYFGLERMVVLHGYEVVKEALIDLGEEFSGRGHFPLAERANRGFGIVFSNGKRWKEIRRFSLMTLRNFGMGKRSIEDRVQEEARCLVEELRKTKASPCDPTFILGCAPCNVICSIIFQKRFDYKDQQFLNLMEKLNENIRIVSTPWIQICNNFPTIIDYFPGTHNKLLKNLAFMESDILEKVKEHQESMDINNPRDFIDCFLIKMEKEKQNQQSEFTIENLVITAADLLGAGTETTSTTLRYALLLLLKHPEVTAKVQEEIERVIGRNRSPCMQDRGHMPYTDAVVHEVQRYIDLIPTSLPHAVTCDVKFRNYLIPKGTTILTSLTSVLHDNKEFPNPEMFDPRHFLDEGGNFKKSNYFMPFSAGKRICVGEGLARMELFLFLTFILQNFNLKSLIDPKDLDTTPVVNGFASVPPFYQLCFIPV
Aryl hydrocarbon receptor, sequence (P35869 whole entry): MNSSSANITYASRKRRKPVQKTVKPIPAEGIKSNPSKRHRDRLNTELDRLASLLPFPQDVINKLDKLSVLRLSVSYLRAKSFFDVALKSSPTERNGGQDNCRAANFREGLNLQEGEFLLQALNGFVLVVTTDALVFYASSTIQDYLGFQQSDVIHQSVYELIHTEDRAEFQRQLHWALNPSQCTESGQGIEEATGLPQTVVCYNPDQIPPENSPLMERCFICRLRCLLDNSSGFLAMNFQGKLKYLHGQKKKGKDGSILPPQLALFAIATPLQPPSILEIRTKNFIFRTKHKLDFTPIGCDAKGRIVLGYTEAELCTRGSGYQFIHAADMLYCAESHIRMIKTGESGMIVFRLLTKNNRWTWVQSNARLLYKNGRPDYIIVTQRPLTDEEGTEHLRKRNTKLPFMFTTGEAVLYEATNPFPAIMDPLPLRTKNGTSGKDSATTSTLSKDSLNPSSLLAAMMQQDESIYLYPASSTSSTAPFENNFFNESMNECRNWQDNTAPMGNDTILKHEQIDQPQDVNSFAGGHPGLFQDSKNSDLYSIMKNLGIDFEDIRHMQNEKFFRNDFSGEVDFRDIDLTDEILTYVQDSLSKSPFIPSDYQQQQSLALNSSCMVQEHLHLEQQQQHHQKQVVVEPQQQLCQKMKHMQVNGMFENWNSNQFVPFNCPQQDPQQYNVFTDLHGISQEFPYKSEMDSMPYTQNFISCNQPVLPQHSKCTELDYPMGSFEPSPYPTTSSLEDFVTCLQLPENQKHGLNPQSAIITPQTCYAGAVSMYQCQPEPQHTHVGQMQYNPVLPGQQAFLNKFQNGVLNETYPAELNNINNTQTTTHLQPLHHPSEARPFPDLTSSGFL
Peroxisome proliferator-activated receptor gamma/Nuclear receptor corepressor 2, sequence (P37231 whole entry): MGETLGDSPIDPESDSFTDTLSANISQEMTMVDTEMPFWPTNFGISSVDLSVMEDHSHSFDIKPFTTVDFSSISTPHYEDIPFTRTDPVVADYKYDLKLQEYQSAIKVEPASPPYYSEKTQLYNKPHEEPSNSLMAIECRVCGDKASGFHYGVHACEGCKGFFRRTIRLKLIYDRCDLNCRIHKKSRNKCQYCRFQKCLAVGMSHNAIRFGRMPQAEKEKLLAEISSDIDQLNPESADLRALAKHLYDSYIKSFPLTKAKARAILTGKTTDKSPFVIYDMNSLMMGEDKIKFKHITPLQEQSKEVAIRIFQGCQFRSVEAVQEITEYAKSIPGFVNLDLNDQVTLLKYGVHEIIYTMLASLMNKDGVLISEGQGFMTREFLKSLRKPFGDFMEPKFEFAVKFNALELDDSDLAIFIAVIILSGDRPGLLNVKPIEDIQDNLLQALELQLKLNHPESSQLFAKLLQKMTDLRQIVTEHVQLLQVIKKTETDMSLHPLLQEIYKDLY
Peroxisome proliferator-activated receptor gamma/Nuclear receptor corepressor 2, sequence (Q9Y618 whole entry): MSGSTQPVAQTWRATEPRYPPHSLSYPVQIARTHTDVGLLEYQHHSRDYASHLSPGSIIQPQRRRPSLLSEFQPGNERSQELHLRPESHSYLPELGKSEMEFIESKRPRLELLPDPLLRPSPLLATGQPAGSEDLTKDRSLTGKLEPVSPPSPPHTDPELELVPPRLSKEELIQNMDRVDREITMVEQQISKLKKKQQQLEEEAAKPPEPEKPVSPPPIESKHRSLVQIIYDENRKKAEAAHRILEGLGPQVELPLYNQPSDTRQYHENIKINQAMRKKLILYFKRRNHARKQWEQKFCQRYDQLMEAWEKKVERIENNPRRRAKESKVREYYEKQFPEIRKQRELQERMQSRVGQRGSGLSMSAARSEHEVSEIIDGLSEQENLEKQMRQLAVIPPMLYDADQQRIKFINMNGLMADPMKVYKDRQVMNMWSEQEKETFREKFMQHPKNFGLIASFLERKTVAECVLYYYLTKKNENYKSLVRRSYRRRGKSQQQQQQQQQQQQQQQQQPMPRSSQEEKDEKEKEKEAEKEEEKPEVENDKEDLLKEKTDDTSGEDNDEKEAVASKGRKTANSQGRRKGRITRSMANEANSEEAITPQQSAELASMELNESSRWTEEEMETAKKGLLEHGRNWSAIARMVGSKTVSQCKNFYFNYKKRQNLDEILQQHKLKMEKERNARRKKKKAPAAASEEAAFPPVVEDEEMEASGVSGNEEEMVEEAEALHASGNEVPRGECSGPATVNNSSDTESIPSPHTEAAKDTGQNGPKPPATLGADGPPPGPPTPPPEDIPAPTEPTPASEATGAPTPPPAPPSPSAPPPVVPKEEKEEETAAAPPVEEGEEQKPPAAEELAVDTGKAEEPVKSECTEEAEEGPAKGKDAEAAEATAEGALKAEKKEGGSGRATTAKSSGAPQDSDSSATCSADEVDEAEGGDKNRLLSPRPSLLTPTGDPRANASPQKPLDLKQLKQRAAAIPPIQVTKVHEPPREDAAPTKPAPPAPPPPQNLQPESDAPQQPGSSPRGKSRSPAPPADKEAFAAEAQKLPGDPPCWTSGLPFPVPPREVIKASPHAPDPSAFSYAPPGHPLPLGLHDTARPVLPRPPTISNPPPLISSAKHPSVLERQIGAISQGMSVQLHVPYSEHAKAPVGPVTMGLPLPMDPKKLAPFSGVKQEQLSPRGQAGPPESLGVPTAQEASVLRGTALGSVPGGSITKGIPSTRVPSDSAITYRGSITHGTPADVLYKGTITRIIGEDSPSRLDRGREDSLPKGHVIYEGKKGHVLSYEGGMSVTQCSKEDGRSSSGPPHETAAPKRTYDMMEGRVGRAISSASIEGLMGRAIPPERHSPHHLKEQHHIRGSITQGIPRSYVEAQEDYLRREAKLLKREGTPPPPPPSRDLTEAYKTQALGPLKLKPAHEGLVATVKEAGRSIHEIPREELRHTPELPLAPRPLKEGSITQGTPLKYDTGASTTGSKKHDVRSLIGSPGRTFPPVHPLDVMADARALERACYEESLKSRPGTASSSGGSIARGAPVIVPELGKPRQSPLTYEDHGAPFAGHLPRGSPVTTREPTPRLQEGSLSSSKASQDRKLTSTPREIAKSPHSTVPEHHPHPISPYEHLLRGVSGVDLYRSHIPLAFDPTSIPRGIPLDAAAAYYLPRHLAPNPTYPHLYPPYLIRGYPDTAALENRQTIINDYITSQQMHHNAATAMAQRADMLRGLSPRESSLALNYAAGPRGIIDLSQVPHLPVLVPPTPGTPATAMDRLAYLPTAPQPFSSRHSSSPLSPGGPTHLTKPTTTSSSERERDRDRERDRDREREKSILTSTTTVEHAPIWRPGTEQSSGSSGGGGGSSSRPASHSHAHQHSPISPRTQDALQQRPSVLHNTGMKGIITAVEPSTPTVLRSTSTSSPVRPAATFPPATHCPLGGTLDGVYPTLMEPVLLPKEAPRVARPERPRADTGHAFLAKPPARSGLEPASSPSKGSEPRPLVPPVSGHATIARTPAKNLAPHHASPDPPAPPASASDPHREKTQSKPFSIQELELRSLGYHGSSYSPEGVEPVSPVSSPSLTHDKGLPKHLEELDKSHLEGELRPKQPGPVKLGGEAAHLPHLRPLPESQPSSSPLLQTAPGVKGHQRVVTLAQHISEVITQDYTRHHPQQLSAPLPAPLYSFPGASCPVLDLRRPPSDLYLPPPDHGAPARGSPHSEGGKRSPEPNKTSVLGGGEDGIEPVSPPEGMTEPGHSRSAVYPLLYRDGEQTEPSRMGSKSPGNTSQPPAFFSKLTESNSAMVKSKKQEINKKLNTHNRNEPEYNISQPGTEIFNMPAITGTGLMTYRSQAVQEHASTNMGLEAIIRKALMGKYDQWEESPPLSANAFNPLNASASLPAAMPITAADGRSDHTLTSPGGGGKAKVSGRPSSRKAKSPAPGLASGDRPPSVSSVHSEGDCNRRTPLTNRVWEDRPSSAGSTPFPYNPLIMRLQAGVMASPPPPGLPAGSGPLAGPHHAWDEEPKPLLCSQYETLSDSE
NAD-dependent protein deacylase sirtuin-5, mitochondrial, sequence (Q9NXA8 whole entry): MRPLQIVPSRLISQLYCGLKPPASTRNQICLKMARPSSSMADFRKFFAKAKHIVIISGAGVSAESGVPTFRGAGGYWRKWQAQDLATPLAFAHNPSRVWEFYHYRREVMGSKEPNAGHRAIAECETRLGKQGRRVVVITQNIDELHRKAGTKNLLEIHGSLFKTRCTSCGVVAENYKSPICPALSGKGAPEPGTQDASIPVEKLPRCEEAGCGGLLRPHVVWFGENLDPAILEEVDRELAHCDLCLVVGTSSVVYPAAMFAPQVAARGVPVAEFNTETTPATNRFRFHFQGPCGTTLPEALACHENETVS
Photoreceptor-specific nuclear receptor, sequence (Q9Y5X4 whole entry): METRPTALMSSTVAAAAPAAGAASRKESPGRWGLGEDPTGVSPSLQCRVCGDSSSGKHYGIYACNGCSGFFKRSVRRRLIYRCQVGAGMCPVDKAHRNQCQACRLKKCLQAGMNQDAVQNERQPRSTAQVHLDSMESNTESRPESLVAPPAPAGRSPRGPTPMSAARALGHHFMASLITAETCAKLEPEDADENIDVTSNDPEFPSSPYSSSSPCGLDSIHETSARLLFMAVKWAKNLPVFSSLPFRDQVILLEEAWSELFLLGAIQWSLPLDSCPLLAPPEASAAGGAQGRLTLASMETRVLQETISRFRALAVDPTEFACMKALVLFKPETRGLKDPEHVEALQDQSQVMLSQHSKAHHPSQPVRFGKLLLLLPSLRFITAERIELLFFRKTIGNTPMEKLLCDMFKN

On to `Cc1nc2cc(NN=C3C(=O)CCCC3=O)ccc2s1`, for which the CC50 in [1] was > 40 µM (active). In addition, the IC50 – broadly, the concentration needed to halve the response being measured – at Protein Tat was > 50 µM (active).
As for `O=C(NC1CCCC1)c1cc2c(ccc3ccccc32)o1`, the EC50 (as a rule, the concentration giving half of the maximal effect) in experiment [2] is 2.8 µM (active); with H4, 24.1 µM (active); in [3] it was 1.94 µM (active).
With `Clc1ccc(-n2nnc(-c3cc4ccccc4nc3Cl)n2)cc1Cl`, the 50% inhibitory concentration (IC50) on Bcl-2-related protein A1 [4] and on Bcl-2-related protein A1 [5] was > 100 µM (not active) throughout.
Consider `Cc1ccc(Nc2cc(C)nc3c(C)cccc23)cc1`, for which the AC50 in experiment [6] was > 30 µM (inactive); in [8], 34.4 µM (active). Moreover, the EC50 in experiment [7] was 0.531 µM (active).
`NC(=O)c1sc2cc(C(F)(F)F)cnc2c1-c1cccs1`: the IC50 in experiment [9] is given as > 30 µM (not active).
Consider `O=C(Nc1ccccc1Cl)Oc1ccc2ccccc2c1`, for which the IC50 in experiment [10] is > 100 µM (active).
Consider `O=[N+]([O-])c1cnc(Nc2ccc(Cl)cn2)c([N+](=O)[O-])c1`, for which the EC50 in experiment [2] was 1.29 µM (active). Besides, in [11], the CC50 was > 40 µM (active). Also, in “cells”, the concentration for half-maximal inhibition (IC50) was 4.17 µM (active).
As to `CCC/C=C/C1C(=O)C2OC2C2(OCC(CC)(CC)CO2)C1CO` (stereo unspecified), the AC50 was 3.98 µM (inconclusive) on Cytochrome P450 3A4 and 0.004 µM (inconclusive) on Cytochrome P450 2C19.
Turning to `CS(=O)(=O)N(CC(=O)NC1CCCCC1)Cc1ccc(F)cc1`, the IC50 in experiment [12] and in [13] was > 39.8 µM (not active) throughout.
As for `CC1CCC2C(=O)N3C(CCC(C)[C@@H]3c3cccc(N4CCOCC4)c3)C(=O)N2C1c1cccc(Br)c1` (stereo partly specified), the AC50 on Cytochrome P450 2C19 was 7.94 µM (inconclusive).
For the compound `CCN(CC)CCNC(=O)C1C(C)=NC(/C=C2\C(=O)Nc3ccc(F)cc32)=C1C` (stereo unspecified), the results for the IC50 in experiment [14], in [15] and in [16] were > 33.3 µM (inactive), > 10 µM (inactive) and > 10 µM (inactive), respectively.
With `C[C@H]1CN([C@@H](C)CO)C(=O)Cc2cc(NC(=O)Nc3ccc(F)cc3)ccc2O[C@H]1CN(C)Cc1ccc(Cl)c(Cl)c1`, the AC50 at Paired box protein Pax-8 is 7.04 µM (active); in experiment [17], 32.5 µM (active).
Consider `COc1cccc(-c2ccc3c(c2)[C@@H]2[C@@H](CCN2C(=O)C2CCCC2)[C@@H](CO)N3)c1`, for which the AC50 was 2.12 µM (active) in experiment [18]; 1.65 µM (active) in experiment [19]; 32.9 µM (active) in experiment [20]; 2.25 µM (active) in experiment [21]; > 39 µM (inactive) in [22]; 2.57 µM (active) in [23].
Regarding `N#C[C@@H]1[C@@H](c2ccc(C#Cc3ccc(F)cc3)cc2)[C@H](CO)N1C(=O)C1CCCC1`, the AC50 in experiment [18] was 1.52 µM (active); in experiment [19], 1.99 µM (active); in experiment [20] it was 25.5 µM (active); in [21] it was 2.53 µM (active); in [23] it was 1.82 µM (active).
